Patent US20240238423A9, “TETRAHYDROISOQUINOLINE HETEROBIFUNCTIONAL BCL-XL DEGRADERS” (Treeline Biosciences, Inc., priority 2022, published 2024)
Read-outs that look alike come from different tables or passages of the source.

Target: T1, Human BCL-XL protein (N-terminal HiBiT tagged BCL-XL in HT1080 cells) (Homo sapiens, UniProt Q07817)
T1 construct: expressed in transfected cells; host or cells: HT-1080 (ATCC CCL-121), stably transduced with lentivirus pLV-UBC-N-HiBiT-BCL-XL-PGK-puro and selected with puromycin
Test: HiBiT based degradation assay
Format: cell-based
Conditions: HT1080 cells expressing HiBiT-BCL-XL; for Ymin (6 h) / Ymin (24 h): BCL-XL degradation normalized with DMSO control; for DC50: BCL-XL degradation
Outline: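 HT1080 cells stably transduced by lentivirus with N-terminally HiBiT-tagged human BCL-XL and kept under 1 μg/mL puromycin selection were seeded at three thousand cells per well in 40 μL RPMI 1640 into 384-well plates pre-spotted with compounds across a concentration range. Luminescence was read on a PHERAstar FSX, normalized to DMSO, and fitted with a four-parameter logistic model.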

T1 sequence (Q07817 whole entry): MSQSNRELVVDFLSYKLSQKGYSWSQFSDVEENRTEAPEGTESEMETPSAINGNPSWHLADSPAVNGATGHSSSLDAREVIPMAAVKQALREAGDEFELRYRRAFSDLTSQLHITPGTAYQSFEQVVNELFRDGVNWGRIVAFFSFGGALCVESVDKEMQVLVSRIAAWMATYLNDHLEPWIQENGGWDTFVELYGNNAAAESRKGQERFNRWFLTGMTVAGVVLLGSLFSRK

Row | Ymin (6 h) | Ymin (24 h) | DC50 (6 h, read-out: EC50 (6 h)) [nM] | DC50 (24 h, read-out: EC50 (24 h)) [nM] | SMILES
1 | B (50% ≤ Ymin < 70%) | A (Ymin < 50%) | < 100 | < 100 | Cc1c(OCC[C@H]2CCN(CC(=O)Nc3ccc4c(C5CCC(=O)NC5=O)nn(C)c4c3)C2)cccc1-c1ccc(N2CCc3cccc(C(=O)Nc4nc5ccccc5s4)c3C2)nc1C(=O)O (stereo partly drawn) [Compound 219b, 6-[8-(1,3-benzothiazol-2-ylcarbamoyl)-3,4-dihydro-1H-isoquinolin-2-yl]-3-[3-[2-[(3R)-1-[2-[[3-(2,6-dioxo-3-piperidyl)-1-methyl-indazol-6-yl]amino]-2-oxo-ethyl]pyrrolidin-3-yl]ethoxy]-2-methyl-phenyl]pyridine-2-carboxylic acid]
2 |  | A (Ymin < 50%) |  | < 100 | Cc1c(O[C@H]2CC[C@H](CCCC(=O)N3CCN(c4ccc5c(C6CCC(=O)NC6=O)nn(C)c5c4)CC3)CC2)cccc1-c1ccc(N2CCc3cccc(C(=O)Nc4nc5ccccc5s4)c3C2)nc1C(=O)O (some centres unmarked) [Compound 227a, 6-(8-(benzo[d]thiazol-2-ylcarbamoyl)-3,4-dihydroisoquinolin-2(1H)-yl)-3-(3-(((1s,4r)-4-(4-(4-(3-(2,6-dioxopiperidin-3-yl)-1-methyl-1H-indazol-6-yl)piperazin-1-yl)-4-oxobutyl)cyclohexyl)oxy)-2-methylphenyl)picolinic acid]
3 |  | B (50% ≤ Ymin < 70%) |  | < 100 | Cc1c(OCC[C@@H]2CCN(CC(=O)Nc3cccc4c(C5CCC(=O)NC5=O)nn(C)c34)C2)cccc1-c1ccc(N2CCc3cccc(C(=O)Nc4nc5ccccc5s4)c3C2)nc1C(=O)O (stereo partly drawn) [Compound 231a, 6-[8-(1,3-benzothiazol-2-ylcarbamoyl)-3,4-dihydro-1H-isoquinolin-2-yl]-3-[3-[2-[(3S)-1-[2-[[3-(2,6-dioxo-3-piperidyl)-1-methyl-indazol-7-yl]amino]-2-oxo-ethyl]pyrrolidin-3-yl]ethoxy]-2-methyl-phenyl]pyridine-2-carboxylic acid]
4 |  | B (50% ≤ Ymin < 70%) |  | < 100 | Cc1c(OCC[C@H]2CCN(CC(=O)Nc3cccc4c(C5CCC(=O)NC5=O)nn(C)c34)C2)cccc1-c1ccc(N2CCc3cccc(C(=O)Nc4nc5ccccc5s4)c3C2)nc1C(=O)O (stereo partly drawn) [Compound 231b, 6-[8-(1,3-benzothiazol-2-ylcarbamoyl)-3,4-dihydro-1H-isoquinolin-2-yl]-3-[3-[2-[(3R)-1-[2-[[3-(2,6-dioxo-3-piperidyl)-1-methyl-indazol-7-yl]amino]-2-oxo-ethyl]pyrrolidin-3-yl]ethoxy]-2-methyl-phenyl]pyridine-2-carboxylic acid]

Continued, compound first:

Row | SMILES | Ymin (6 h) | Ymin (24 h) | DC50 (6 h, read-out: EC50 (6 h)) [nM] | DC50 (24 h, read-out: EC50 (24 h)) [nM]
5 | Cc1c(OCCCC2CCN(CCN3CCN(c4ccc5c(C6CCC(=O)NC6=O)nn(C)c5c4)CC3)CC2)cccc1-c1ccc(N2CCc3cccc(C(=O)Nc4nc5ccccc5s4)c3C2)nc1C(=O)O (centres unmarked) [Compound 220, 6-[8-(1,3-benzothiazol-2-ylcarbamoyl)-3,4-dihydro-1H-isoquinolin-2-yl]-3-[3-[3-[1-[2-[4-[3-(2,6-dioxo-3-piperidyl)-1-methyl-indazol-6-yl]piperazin-1-yl]ethyl]-4-piperidyl]propoxy]-2-methyl-phenyl]pyridine-2-carboxylic acid] |  | A (Ymin < 50%) |  | < 100
6 | Cc1c(OCCCN2CCN(CC3CCN(c4cccc5c(C6CCC(=O)NC6=O)nn(C)c45)CC3)CC2)cccc1-c1ccc(N2CCc3cccc(C(=O)Nc4nc5ccccc5s4)c3C2)nc1C(=O)O (centres unmarked) [Compound 221, 6-(8-(benzo[d]thiazol-2-ylcarbamoyl)-3,4-dihydroisoquinolin-2(1H)-yl)-3-(3-(3-(4-((1-(3-(2,6-dioxopiperidin-3-yl)-1-methyl-1H-indazol-7-yl)piperidin-4-yl)methyl)piperazin-1-yl)propoxy)-2-methylphenyl)picolinic acid] |  | A (Ymin < 50%) |  | < 100
7 | Cc1c(OCCCCCCN2CCN(c3ccc4c(C5CCC(=O)NC5=O)nn(C)c4c3)CC2)cccc1-c1ccc(N2CCc3cccc(C(=O)Nc4nc5ccccc5s4)c3C2)nc1C(=O)O (centres unmarked) [Compound 222, 6-(8-(benzo[d]thiazol-2-ylcarbamoyl)-3,4-dihydroisoquinolin-2(1H)-yl)-3-(3-((6-(4-(3-(2,6-dioxopiperidin-3-yl)-1-methyl-1H-indazol-6-yl)piperazin-1-yl)hexyl)oxy)-2-methylphenyl)picolinic acid] | B (50% ≤ Ymin < 70%) | A (Ymin < 50%) | < 100 | < 100
8 | Cc1c(OCCC2CCN(CCC3CCN(c4ccc5c(C6CCC(=O)NC6=O)nn(C)c5c4)CC3)CC2)cccc1-c1ccc(N2CCc3cccc(C(=O)Nc4nc5ccccc5s4)c3C2)nc1C(=O)O (centres unmarked) [Compound 223, 6-(8-(benzo[d]thiazol-2-ylcarbamoyl)-3,4-dihydroisoquinolin-2(1H)-yl)-3-(3-(2-(1-(2-(1-(3-(2,6-dioxopiperidin-3-yl)-1-methyl-1H-indazol-6-yl)piperidin-4-yl)ethyl)piperidin-4-yl)ethoxy)-2-methylphenyl)picolinic acid] |  | A (Ymin < 50%) |  | < 100
9 | Cc1c(OCCO[C@@H]2C[C@H]3CC[C@@H](C2)N3CC(=O)Nc2cccc3c(C4CCC(=O)NC4=O)nn(C)c23)cccc1-c1ccc(N2CCc3cccc(C(=O)Nc4nc5ccccc5s4)c3C2)nc1C(=O)O (stereo partly drawn) [Compound 224a, 6-(8-(benzo[d]thiazol-2-ylcarbamoyl)-3,4-dihydroisoquinolin-2(1H)-yl)-3-(3-(2-(((1R,3s,5S)-8-(2-((3-(2,6-dioxopiperidin-3-yl)-1-methyl-1H-indazol-7-yl)amino)-2-oxoethyl)-8-azabicyclo[3.2.1]octan-3-yl)oxy)ethoxy)-2-methylphenyl)picolinic acid] | C (Ymin ≥ 70%) | B (50% ≤ Ymin < 70%) | 1000 to 10000 | < 100
10 | Cc1c(OCCO[C@H]2C[C@H]3CC[C@@H](C2)N3CC(=O)Nc2cccc3c(C4CCC(=O)NC4=O)nn(C)c23)cccc1-c1ccc(N2CCc3cccc(C(=O)Nc4nc5ccccc5s4)c3C2)nc1C(=O)O (stereo partly drawn) [Compound 224b, 6-(8-(benzo[d]thiazol-2-ylcarbamoyl)-3,4-dihydroisoquinolin-2(1H)-yl)-3-(3-(2-(((1R,3r,5S)-8-(2-((3-(2,6-dioxopiperidin-3-yl)-1-methyl-1H-indazol-7-yl)amino)-2-oxoethyl)-8-azabicyclo[3.2.1]octan-3-yl)oxy)ethoxy)-2-methylphenyl)picolinic acid] |  | B (50% ≤ Ymin < 70%) |  | < 100
11 | Cc1c(OCC2CC3(CCN(CCN4CCN(c5ccc6c(C7CCC(=O)NC7=O)nn(C)c6c5)CC4)CC3)C2)cccc1-c1ccc(N2CCc3cccc(C(=O)Nc4nc5ccccc5s4)c3C2)nc1C(=O)O (centres unmarked) [Compound 225, 6-(8-(benzo[d]thiazol-2-ylcarbamoyl)-3,4-dihydroisoquinolin-2(1H)-yl)-3-(3-((7-(2-(4-(3-(2,6-dioxopiperidin-3-yl)-1-methyl-1H-indazol-6-yl)piperazin-1-yl)ethyl)-7-azaspiro[3.5]nonan-2-yl)methoxy)-2-methylphenyl)picolinic acid] |  | A (Ymin < 50%) |  | < 100
12 | Cc1c(OCC2CC3(CCN(CC(=O)Nc4cccc5c(C6CCC(=O)NC6=O)nn(C)c45)CC3)C2)cccc1-c1ccc(N2CCc3cccc(C(=O)Nc4nc5ccccc5s4)c3C2)nc1C(=O)O (centres unmarked) [Compound 226, 6-[8-(1,3-benzothiazol-2-ylcarbamoyl)-3,4-dihydro-1H-isoquinolin-2-yl]-3-[3-[[7-[2-[[3-(2,6-dioxo-3-piperidyl)-1-methyl-indazol-7-yl]amino]-2-oxo-ethyl]-7-azaspiro[3.5]nonan-2-yl]methoxy]-2-methyl-phenyl]pyridine-2-carboxylic acid] | C (Ymin ≥ 70%) | B (50% ≤ Ymin < 70%) | < 100 | 100 to 1000
13 | Cc1c(OCCN2CCN(CC3CCN(c4cccc5c(C6CCC(=O)NC6=O)nn(C)c45)CC3)CC2)cccc1-c1ccc(N2CCc3cccc(C(=O)Nc4nc5ccccc5s4)c3C2)nc1C(=O)O (centres unmarked) [Compound 228, 6-(8-(benzo[d]thiazol-2-ylcarbamoyl)-3,4-dihydroisoquinolin-2(1H)-yl)-3-(3-(2-(4-((1-(3-(2,6-dioxopiperidin-3-yl)-1-methyl-1H-indazol-7-yl)piperidin-4-yl)methyl)piperazin-1-yl)ethoxy)-2-methylphenyl)picolinic acid] |  | B (50% ≤ Ymin < 70%) |  | < 100
14 | Cc1c(OCCC(F)(F)C2CCN(CC(=O)Nc3ccc4c(C5CCC(=O)NC5=O)nn(C)c4c3)CC2)cccc1-c1ccc(N2CCc3cccc(C(=O)Nc4nc5ccccc5s4)c3C2)nc1C(=O)O (centres unmarked) [Compound 229, 6-(8-(benzo[d]thiazol-2-ylcarbamoyl)-3,4-dihydroisoquinolin-2(1H)-yl)-3-(3-(3-(1-(2-((3-(2,6-dioxopiperidin-3-yl)-1-methyl-1H-indazol-6-yl)amino)-2-oxoethyl)piperidin-4-yl)-3,3-difluoropropoxy)-2-methylphenyl)picolinic acid] |  | B (50% ≤ Ymin < 70%) |  | < 100
15 | Cc1c(OCCCC2CCN(CCN3CCN(c4cccc5c(C6CCC(=O)NC6=O)nn(C)c45)CC3)CC2)cccc1-c1ccc(N2CCc3cccc(C(=O)Nc4nc5ccccc5s4)c3C2)nc1C(=O)O (centres unmarked) [Compound 230, 6-(8-(benzo[d]thiazol-2-ylcarbamoyl)-3,4-dihydroisoquinolin-2(1H)-yl)-3-(3-(3-(1-(2-(4-(3-(2,6-dioxopiperidin-3-yl)-1-methyl-1H-indazol-7-yl)piperazin-1-yl)ethyl)piperidin-4-yl)propoxy)-2-methylphenyl)picolinic acid] |  | A (Ymin < 50%) |  | < 100
